Measured values reported in US20020155172A1, “Methods and compounds for decreasing cell toxicity or death” (priority 2000, published 2002).

Experiments:
Type in all cases: cell-based
[1] = tested on: HeLa cells transfected with Q79-GFP; assay: Cellular ATP levels (ATPLite) in Q79 expressing HeLa cells
Procedure: We also investigated whether Congo red prevented other cellular events during cell death, including ATP depletion, caspase activation, and protein synthesis inhibition. HeLa cells were transfected with the Q79-GFP construct. Forty-eight hours later, the viability of cells expressing expanded polyglutamine repeats was determined by measuring cellular ATP levels, suing an ATPLite™ kit, according to the directions provided by the manufacturer (Packard, Co.) (FIG. 5A).
To determine the effect of Congo red (100 μM) on polyglutamine-induced cell toxicity. HeLa cells were transiently transfected with Q79-GFP, and six hours later were administered various concentrations of Congo red. Cell viability was assayed 72 hours after transfection, by measuring the level of ATP in each sample. ATP levels in cells expressing Q79 were determined by using the ATPLite™ kit as recommended by the manufacturer (Packard, Inc.). Briefly, cells were transfected with Q79 and treated 6 hours after transfection. Forty-two hours later, the levels of ATP were determined. (FIG. 5C).
A high-throughput method for identifying compounds that decrease cell toxicity or death has been designed. In this method, cells were seeded at 2×10^5 cells in 100 mm dishes. The next day the plated cells were transiently transfected with a plasmid encoding an expanded polyglutamine repeat, for example, Q79. Three hours later, transfection efficiency was assessed. Plates containing cells having 10-20% transfection efficiency at this 3 hour time point were trypsinized and re-plated at 600 or at 1500 cells per well in 384 well plates with clear bottoms. After 6 hours, the candidate compounds were added to the multi-well plates. The cells were cultured for 48 hours and ATP levels were determined using an ATPLite™ kit. Data was then expressed in either arbitrary units, or as relative ratio of ATP levels in Q79 transfected cells in compound-treated relative to vehicle-treated samples.
Derivatives of Congo red (commercially available from Sigma/Aldrich) were tested for their ability to alter cell toxicity and death by measuring ATP depletion and luciferase expression. The assay was carried out as described above for the high-throughput identification of compounds. Briefly, HeLa cells were transiently transfected with a Q79/GFP plasmid and were subsequently treated with various concentrations of Congo red, or 25 μM of each of Direct Orange 6, Direct Red 1, Direct Orange 1, Direct Black 51, Direct Orange 8, Direct Yellow 26, Direct Yellow 28, or Direct Blue 158. Drug treatment continued for 6 hours and then 48 hours later, ATP levels were measured in these cells and compared to the ATP levels in cells that were transiently transfected with GFP only, and also received the compound.

[2] = tested on: neuroblastoma (SHSY) cells transfected with Q79-GFP; assay: Expanded polyglutamine aggregation and cell death in neuroblastoma (SHSY) cells; details: Congo red 1.5 to 100 nM
Procedure: Cells, including neuroblastoma cells, HeLa cells, primary neuronal cells, and primary embryonic neuronal cells were transiently transfected with the plasmid […]-GFP, encoding 79 glutamines followed by the jellyfish green fluorescent protein (Sanchez et al., supra). Expression of […]-GFP was observed 48 or 72 hours after transfection by visual inspection of GFP-positive cells using an inverted fluorescence microscope. In a cell expressing […]-GFP polypeptides, polyglutamine aggregates are formed and the cell dies by apoptosis (Sanchez, supra). Cell viability was determined by morphological criteria characteristic of apoptosis, including cell blebbing, shrinking. Total cell lysates and tissue homogenates were obtained using Buffer A: 1% triton in PBS, containing 10 μg/ml DNAse and protease inhibitors; leupeptin 20 μg/ml, aprotinin 20 u/ml, and PMSF 100 mM. […] These effects were determined by visual inspection of GFP-positive cells under an inverted fluorescence microscope. […] Cells expressing […]-GFP were incubated in cell culture media containing Congo red and evaluated for the effect of Congo red on polyglutamine aggregation and cell death. […] The cells were then scored the presence of visible oligomers by fluorescence microscopy. Cells in which oligomers were not detected at this level of resolution were scored as cells lacking polyglutamine aggregates. […]

[3] = tested on: RIP, FADD, and Daxx; assay: Apoptosis induced by overexpression of adapter proteins
Procedure: FIG. 5G is a graph of the effects of Congo red on cell death induced by adapter protein oligomerization (Daxx, RIP, FADD).
(§1) HeLa cells expressing Q79 expanded polyglutamine repeats were treated with 100 μM Congo red, or 100 μM ZVAD (a positive control) for one hour prior to the addition of the apoptosis-inducing agent, and cell death was determined 48 hours later. […] Finally we tested whether Congo red can inhibit apoptosis induced by overexpression of caspase-1, -8, or -11.

[4] = tested on: caspase-1, -8, or -11; assay: Apoptosis induced by overexpression of caspases
Procedure: FIG. 5H is a graph of the effects of Congo red on cell death induced by caspase over-expression(caspases-8, -1, or -11).
as §1

[5] = tested on: HeLa cells expressing Q79 expanded polyglutamine repeats; assay: Cell death induced by TNF-α/CHX, Fas/CHX or H2O2; details: 100 μM, one hour before the inducing agent; cell death 48 hours later
Procedure: FIG. 5F is a graph of the effects of Congo red, ZVAD, or vehicle (NT) on cell death when the cells are induced to die by receptor mediated pathways (TNF-α/cycloheximide (CHX), Fas/cycloheximide (CHX)), or necrosis (hydrogen peroxide).
as §1

[6] = tested on: Q79-expressing HeLa cells; assay: Turnover of S35-labeled expanded polyglutamine repeats
Procedure: FIG. 8A is a set of scanned autoradiograms showing the effect of Congo red on expanded polyglutamine repeat turn-over, as assessed by relative levels of S^35 labeled polyQ (Q79) protein, with or without Congo red treatment. Q79-HA expressing cells were metabolically labeled with S^35 methionine for one hour. Cells were harvested one and 24 hours after labeling. PolyQ protein was immunoprecipitated with an anti-HA antibody, and the proteins were separated by electrophoresis before blotting.
We next determined whether inhibition and disruption of Q79 oligomers changed its turnover kinetics by measuring pulse-S^35-labeled polyglutamine levels in the presence or absence of Congo red.

Nc1c(/N=N/c2ccc(-c3ccc(/N=N/c4cc(S(=O)(=O)O)c5ccccc5c4N)cc3)cc2)cc(S(=O)(=O)O)c2ccccc12 [Congo red, diphenyldiazo-bis-alpha-napthylaminesulfonate]
protection from polyglutamine repeat-induced cell death (ATP levels) ([1]; 25 or 50 μM, Q79-GFP): very effective at protecting cells | ATP loss ([1]; HA-tagged Q79-GFP, caspase-8 experiment): significantly inhibited ATP loss | concentration at which protection from polyglutamine repeat-induced cell death begins (ATP levels) ([1]; Q79-GFP, treated six hours after transfection): 12 µM | cell death [2]: significantly reduced cell death | formation of polyglutamine aggregates [2]: inhibited the formation of polyglutamine aggregates | apoptosis induced by overexpression of RIP, FADD, or Daxx [3]: had no effect on apoptosis induced by overexpression of RIP, FADD, or Daxx | apoptosis induced by overexpression of caspase-1, -8, or -11 [4]: had no effect on caspase induced cell death | cell death induced by TNF-α/CHX, Fas/CHX, or H2O2 [5]: No effect | steady state levels of HA-Q79 ([6]; Western blot, compared to negative controls): only slightly reduced steady state levels | level of S35-labeled polyglutamine ([6]; after chase for 24 hours, versus control cells): more than two fold lower | expression (synthesis) of expanded polyglutamine ([6]; one hour after chase): did not prevent the expression of expanded polyglutamine | turnover rate of S35-labeled Q79 ([6]; versus control cells): at least a two fold higher turnover rate
